Source: ChEMBL document CHEMBL1129904, “3-chloro-4-carboxamido-6-arylpyridazines as a non-peptide class of interleukin-1 converting enzyme inhibitor” (Bioorg Med Chem Lett, 1997)

Key:
[1] = target: T1, Caspase-1 (Homo sapiens, UniProt P29466); test: Antiinflammatory activity measured as the concentration required to inhibit IL-1 beta converting enzyme
T1 sequence (P29466 whole entry): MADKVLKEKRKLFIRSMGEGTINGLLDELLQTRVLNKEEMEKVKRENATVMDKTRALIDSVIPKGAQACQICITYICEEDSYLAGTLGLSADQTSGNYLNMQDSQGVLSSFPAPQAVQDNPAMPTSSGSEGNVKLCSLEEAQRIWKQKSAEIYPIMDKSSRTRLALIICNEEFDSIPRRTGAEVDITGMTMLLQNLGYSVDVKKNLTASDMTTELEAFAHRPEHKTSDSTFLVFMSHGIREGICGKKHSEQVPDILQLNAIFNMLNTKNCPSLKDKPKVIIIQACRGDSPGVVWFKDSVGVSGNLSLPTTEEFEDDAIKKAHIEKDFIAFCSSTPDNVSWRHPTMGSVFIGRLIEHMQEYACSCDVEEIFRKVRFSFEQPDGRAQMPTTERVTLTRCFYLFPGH

[2] = target: T2, Caspase-1 (Homo sapiens) (UniProt P29466); test: Inactivation of IL-1 beta converting enzyme
T2 sequence (whole entry): T1 sequence (P29466 whole entry)

Compound: COc1ccc(-c2cc(C(N)=O)c(Cl)nn2)cc1
- IC50 [1]: 66 µM
- k obs / 1 [2]: < 5 M⁻¹ s⁻¹

Compound: CCOC(=O)CNC(=O)c1cc(-c2ccncc2)nnc1Cl
- IC50 [1]: 2 µM

Compound: CS(=O)(=O)c1c(F)cc(-c2cc(C(N)=O)c(Cl)nn2)cc1F
- IC50 [1]: 0.3 µM
- k obs / 1 [2]: 355 M⁻¹ s⁻¹

Compound: N#Cc1ccc(-c2cc(C(N)=O)c(Cl)nn2)cc1
- IC50 [1]: 1.5 µM

Compound: NC(=O)c1cc(-c2ccccc2)nnc1Cl
- IC50 [1]: 57 µM
- k obs / 1 [2]: < 5 M⁻¹ s⁻¹

Compound: CNC(=O)c1cc(Cl)nnc1Cl
- IC50 [1]: > 250 µM

Compound: CN(C)C(=O)c1cc(-c2ccncc2)nnc1Cl
- IC50 [1]: > 250 µM

Compound: O=C(NCc1ccc(Cl)cc1Cl)c1cc(-c2ccncc2)nnc1Cl
- IC50 [1]: 2 µM
- k obs / 1 [2]: 140 M⁻¹ s⁻¹

Compound: CSc1nnc(-c2ccncc2)cc1C(N)=O
- IC50 [1]: > 250 µM

Compound: NC(=O)c1cc(-c2ccncc2)cnc1Cl
- IC50 [1]: > 250 µM

Compound: NC(=O)c1cnnc(-c2ccncc2)c1
- IC50 [1]: > 250 µM

Compound: NC(=O)c1cc(-c2ccncc2)nnc1Cl
- IC50 [1]: 3 µM
- k obs / 1 [2]: 70 M⁻¹ s⁻¹

Compound: CNC(=O)c1cc(-c2ccncc2)nnc1Cl
- IC50 [1]: 10 µM
- k obs / 1 [2]: 25 M⁻¹ s⁻¹

Compound: CCOC(=O)c1cc(-c2ccncc2)nnc1Cl
- IC50 [1]: 13 µM
- k obs / 1 [2]: 10 M⁻¹ s⁻¹

Compound: NC(=O)c1cc(-c2ccc(C(F)(F)F)cc2)nnc1Cl
- IC50 [1]: 5 µM
- k obs / 1 [2]: 40 M⁻¹ s⁻¹

Compound: N#Cc1cc(-c2ccncc2)nnc1Cl
- IC50 [1]: 110 µM

Compound: NC(=O)c1cc(-c2ccc([N+](=O)[O-])cc2)nnc1Cl
- IC50 [1]: 0.7 µM

Compound: NC(=O)c1cc(-c2ccc(Br)cc2)nnc1Cl
- IC50 [1]: 5 µM

Compound: N#Cc1ccc(-c2cc(C(N)=O)c(Cl)nn2)cc1Cl
- IC50 [1]: 0.5 µM
- k obs / 1 [2]: 225 M⁻¹ s⁻¹

Compound: NC(=O)c1cc(-c2ccc(F)c(Cl)c2)nnc1Cl
- IC50 [1]: 5.5 µM
- k obs / 1 [2]: 45 M⁻¹ s⁻¹

Compound: Cc1c(-c2ccc(Cl)cc2)nnc(Cl)c1C(N)=O
- IC50 [1]: > 250 µM

Compound: O=C(NCc1ccccc1)c1cc(-c2ccncc2)nnc1Cl
- IC50 [1]: 4 µM
- k obs / 1 [2]: 50 M⁻¹ s⁻¹

Compound: COc1nnc(-c2ccncc2)cc1C(N)=O
- IC50 [1]: > 250 µM

Compound: NC(=O)c1cc(-c2ccc(Cl)cc2)nnc1Cl
- IC50 [1]: 5 µM

Compound: NC(=O)c1cc(-c2ccc(NS(=O)(=O)c3ccccc3)cc2)nnc1Cl
- IC50 [1]: 18 µM
